Data on seven compounds can be found in PubChem BioAssay (NCI).

Test systems include MCF7 breast; UACC-257 melanoma; NCI-H226 lung; T-47D breast; HCT-116 colon; SF-295 CNS; SK-MEL-2 melanoma; COLO 205 colon; 786-0 renal; SN12C renal.
Common to all, as to experiment: NCI tumour cell line growth inhibition, 48 h

Molecules are shown by their SMILES.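 These data come from cells grown in 96-well plates and exposed to compound for 48 hours at five concentrations. TGI: concentration producing complete growth inhibition.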

In the case of `C[C@@H]1CCC2[C@@H](C)[C@@H](O[C@H]3O[C@@H]4O[C@@]5(C)CCC6[C@H](C)CCC([C@H]3C)[C@]64OO5)O[C@@H]3O[C@@]4(C)CCC1[C@@]23OO4` (stereo not given in full), the TGI with MCF7 breast, in the experiment on UACC-257 melanoma, with NCI-H226 lung, in the experiment on T-47D breast, in the experiment on HCT-116 colon and with SF-295 CNS was above 25 µM in each case. Further, the TGI with SK-MEL-2 melanoma, with COLO 205 colon, in the experiment on 786-0 renal and with SN12C renal was above 25 µM throughout.

On to `N#CC(c1ccccc1)N(CCOCCOCCN(C(=O)c1ccccc1)C(C#N)c1ccccc1)C(=O)c1ccccc1` (stereo not given), for which the TGI with MCF7 breast was above 100 µM; in the experiment on UACC-257 melanoma, above 100 µM; with NCI-H226 lung, above 100 µM; in the experiment with T-47D breast it was 67.4 µM; with HCT-116 colon, above 100 µM; in the experiment on SF-295 CNS it was above 100 µM. Further, the TGI with SK-MEL-2 melanoma, in the experiment on COLO 205 colon, in the experiment with 786-0 renal and in the experiment on SN12C renal was above 100 µM in each case.

As for `CC(C)(C)OC(=O)NC(CSSCC(NC(=O)OC(C)(C)C)C(=O)O)C(=O)O` (stereo not given), the TGI in the experiment on MCF7 breast, in the experiment with UACC-257 melanoma, with NCI-H226 lung, in the experiment with T-47D breast, in the experiment with HCT-116 colon and with SF-295 CNS was above 100 µM throughout. The TGI in the experiment with SK-MEL-2 melanoma, with COLO 205 colon, with 786-0 renal and in the experiment with SN12C renal was above 100 µM in each case.

Regarding `C=CCn1c(=O)ccn(/C(=C/C(=O)OCC)C(=O)OCC)c1=O`, the TGI with MCF7 breast was 17.1 µM; with UACC-257 melanoma it was 28.7 µM; in the experiment on NCI-H226 lung, above 31.6 µM; in the experiment on T-47D breast, 19 µM; in the experiment on HCT-116 colon, above 41.5 µM; in the experiment on SF-295 CNS, above 87.7 µM. Moreover, the TGI was determined as 34.3 µM in the experiment with SK-MEL-2 melanoma, 3.97 µM in the experiment on COLO 205 colon, 11.7 µM in the experiment with 786-0 renal and 25.2 µM in the experiment with SN12C renal.

In the case of `CCOC(=O)C(NC(=O)CC)(N1CCN(c2cc3c(cc2F)c(=O)c(C(=O)O)cn3C2CC2)CC1)C(F)(F)F` (stereo not given), the TGI in the experiment with MCF7 breast, in the experiment on UACC-257 melanoma, with NCI-H226 lung, in the experiment with T-47D breast, in the experiment with HCT-116 colon and with SF-295 CNS was above 100 µM in each case. Further, the TGI in the experiment with SK-MEL-2 melanoma, with COLO 205 colon, in the experiment with 786-0 renal and with SN12C renal was above 100 µM each time.

Turning to `CCc1n[nH]c(=O)n1-c1ccc2ccccc2c1`, the TGI in the experiment on MCF7 breast, in the experiment on UACC-257 melanoma, in the experiment on NCI-H226 lung, in the experiment with T-47D breast, in the experiment with HCT-116 colon and in the experiment on SF-295 CNS was above 100 µM each time. Moreover, the TGI in the experiment on SK-MEL-2 melanoma, in the experiment with COLO 205 colon, in the experiment on 786-0 renal and with SN12C renal was above 100 µM throughout.

`CCOC(=O)c1c2cccccc-2nc1Nc1cccc2c(C)ccnc12`: the TGI in the experiment with MCF7 breast, in the experiment on UACC-257 melanoma, with NCI-H226 lung, in the experiment on T-47D breast, in the experiment with HCT-116 colon and with SF-295 CNS was above 10 µM throughout. In addition, the TGI with SK-MEL-2 melanoma, with COLO 205 colon, in the experiment on 786-0 renal and in the experiment with SN12C renal was above 10 µM in each case.
